According to paper PMC7535918, “Uncovering a novel molecular mechanism for scavenging sialic acids in bacteria” (The Journal of Biological Chemistry, 2020):

Tests used:
RgNanOx [1] = biological target: T1, RgNanOx (Mediterraneibacter gnavus, UniProt A7B558); assay: differential scanning fluorimetry; type: binding; conditions: […] NADH, […] protein, […] sodium phosphate pH […]
T1 construct: gene RUMGNA_02695; Gfo/Idh/MocA-class Rossmann fold; dimer in the asymmetric unit

RgNanOx [2] = biological target: T1, RgNanOx; assay: X-ray crystal structure of the complex ([…] and […] A); type: binding; conditions: NAD+ bound at Rossmann fold; citric acid from crystallization buffer beside nicotinamide; sodium citrate pH […], PEG […]

Compound | ΔTm (RgNanOx [1]) | X-ray crystal structure of the complex (2.58 and 1.74 A) (RgNanOx [2])
NC(=O)C1=CN([C@@H]2O[C@H](COP(=O)(O)OP(=O)(O)OC[C@H]3O[C@@H](n4cnc5c(N)ncnc54)[C@H](O)[C@@H]3O)[C@@H](O)[C@H]2O)C=CC1 [NADH] | DSF analysis of RgNanOx and EcNanOx, the ΔTm is shown | –
NC(=O)c1ccc[n+]([C@@H]2O[C@H](COP(=O)(O)OP(=O)(O)OC[C@H]3O[C@@H](n4cnc5c(N)ncnc54)[C@H](O)[C@@H]3O)[C@@H](O)[C@H]2O)c1 [NAD^+] | – | crystal structure of the recombinant RgNanOx in complex with the NAD^+ cofactor was solved
